Experimental data as given in US20070107083A1, “Method for regulating plant growth” (priority 2004, published 2007).
Entries after “also recorded” stand apart in the source; their conditions may differ.

Tests used:
[1] = tested on: DOGT1 promoter (PDOGT1-GUS); type: in vivo, Arabidopsis thaliana; conditions: seedlings; DON 5 ppm for 4 h, ACC 2 μM for 1 h, SA 200 μM for 12 h, JA 50 μM for 1 h
DOGT1 (UGT73C5) mRNA = assay: Semiquantitative RT-PCR of DOGT1 mRNA after compound treatment; type: in vivo, Arabidopsis thaliana; conditions: for DOGT1 mRNA expression (RT-PCR): seedlings in liquid MS, 5 ppm DON, 200 μM SA, 2 μM ACC or 50 μM JA
UGT73C6 mRNA = assay: Semiquantitative RT-PCR of 73C6 mRNA after compound treatment; type: in vivo, Arabidopsis thaliana; conditions: seedlings in liquid MS, 5 ppm DON, 200 μM SA, 2 μM ACC or 50 μM JA
UGT73C4 mRNA = assay: Semiquantitative RT-PCR of 73C4 mRNA after compound treatment; type: in vivo, Arabidopsis thaliana; conditions: seedlings in liquid MS; 5 ppm DON, 200 μM SA
[2] = tested on: A. thaliana high DOGT1-expression line (1319/2); assay: Phenotype of DOGT1-overexpressing seedlings on brassinosteroid media; type: in vivo, Arabidopsis thaliana; conditions: 10 day old seedlings
Protocol: (§1) 10 day old seedlings were transferred to MS media resp. MS media containing 1.0 μM BL and incubated for another 10 days before phenotypic analysis. […] Right: Seedlings of lines expressing DOGT1 grown on MS media show a BR-deficient phenotype (short hypocotyls and smaller leaves with shorter petioles compared to wild-type).
(§2) Plant material and growth conditions. A. thaliana experiments were conducted with the wild-type ecotype Columbia-0 (Col-0). For propagation seeds were sterilized, plated on standard MS growth medium (Murashige et al., Plant Physiology 15 (1962), 473-497) supplemented with 1.0% sucrose and 1.0% phytagar (Life Technologies) and subjected to a 2 day dark treatment at 4° C. to synchronize germination. The seedlings were grown for 2 weeks in a controlled environment of 16 h/8 h light-dark cycle (140 μmol m^−2 sec^−1 white light) at 22° C. before they were transferred to soil and grown at 20° C. and 55% humidity under continuous white light.
(§3) The effect of externally applied epi-brassinolide (epi-BL) was determined by transferring 10 day old seedlings of wild-type and a high DOGT1-expression line (1319/2) to media containing different concentrations of the brassinosteroid. The plants were incubated for 10 days before the phenotype was analysed.

[3] = tested on: A. thaliana wild-type Col-0; assay: Phenotype of wild-type seedlings on brassinosteroid media; type: in vivo, Arabidopsis thaliana; conditions: 10 day old seedlings
Protocol: as §1, §2, §3

[4] = tested on: dwarf mutants with defects in BR biosynthesis; conditions: application of brassinolide; cited from earlier work
[5] = tested on: Saccharomyces cerevisiae strain YZGA452; type: cell-based
[6] = tested on: Wild-type Saccharomyces cerevisiae; type: cell-based
[7] = MS media containing 1.0 μM BL, another 10 days
[8] = media with different concentrations, 10 days

SMILES | PDOGT1-GUS expression [1] | DOGT1 mRNA expression (RT-PCR) (DOGT1 (UGT73C5) mRNA) | 73C6 mRNA expression (RT-PCR) (UGT73C6 mRNA) | 73C4 mRNA expression (RT-PCR) (UGT73C4 mRNA) | other results
CC/C=C\C[C@H]1C(=O)CC[C@@H]1CC(=O)O [JA, jasmonic acid] | No induction of expression | responded weekly with elevated mRNA levels | responded weekly with elevated mRNA levels | – | DOGT1 mRNA expression (RT-PCR) (DOGT1 (UGT73C5) mRNA; listed as Jasmonic acid): weak induction of expression; 73C6 mRNA expression (RT-PCR) (UGT73C6 mRNA; listed as Jasmonic acid): weak induction of expression
O=C(O)c1ccccc1O [SA, salicylic acid] | No induction of expression | rather weakly; also recorded: responded weekly with elevated mRNA levels | rather weakly; also recorded: responded weekly with elevated mRNA levels | rather weakly | –
CC(C)[C@H](C)[C@@H](O)[C@H](O)[C@@H](C)[C@H]1CC[C@H]2[C@@H]3COC(=O)[C@H]4C[C@H](O)[C@H](O)C[C@]4(C)[C@H]3CC[C@]12C [BL, Brassinolide] | – | – | – | – | phenotype of DOGT1-expressing seedlings [2, 7]: restores wild-type growth; phenotype of wild-type seedlings [3, 7]: typical growth response; growth of dwarf mutants with defects in BR biosynthesis [4]: restores normal growth
CC1=C[C@H]2O[C@@H]3[C@H](O)C[C@](C)([C@@]2(CO)[C@H](O)C1=O)[C@]31CO1 [DON, deoxynivalenol] | induce PDOGT1-GUS expression | DON inducible expression | stronger induction of expression | DON inducible | growth of yeast transformed with the empty library plasmid ([5]; 180 ppm DON in media): completely inhibit growth; sensitivity of strain YZGA452 ([5]; strain deficient in four ABC transporters): hypersensitive; resistance of wild-type yeast [6]: highly resistant; time of peak of transcript amounts (DOGT1 (UGT73C5) mRNA; incubation with 5 ppm DON, stated for DOGT1, 73C4 and 73C6 transcripts): 4 h
CC(C)[C@@H](C)[C@@H](O)[C@H](O)[C@@H](C)[C@H]1CC[C@H]2[C@@H]3COC(=O)[C@H]4C[C@H](O)[C@H](O)C[C@]4(C)[C@H]3CC[C@]12C [epi-BL, epi-brassinolide] | – | – | – | – | phenotype of high DOGT1-expression line 1319/2 [2, 8]: restored to wild-type phenotype; phenotype of Col-0 [3, 8]: typical growth response
